From patent US11807625B2, “Capsid inhibitors for the prevention of HIV” (Gilead Sciences, Inc., priority 2019, dated 2023)

Tested on: SHIV
Test: PrEP efficacy in rhesus repeat intrarectal SHIV challenge model, plasma viral load by qRT-PCR
Format: in vivo, rhesus macaques
Conditions: for Plasma SHIV: rhesus, individual animals
Protocol: The PrEP efficacy a compound of Formula (Ib) in rhesus was evaluated using a repeat intrarectal (IR) challenge model.
This study also established a correlation between exposure and protection using a single high-dose administration of a compound of Formula (Ib) vs. placebo, followed by multiple weekly IR challenges until infection occured. In this study, multiple challenges overlapped with clinically-relevant drug levels. The supratherapeutic IQs (inhibitory quotients) were assessed to maximize protection and achieve proof-of-concept in case rectal tissue levels were much lower than in plasma. Lower doses of a compound of Formula (Ib), or a pharmaceutically acceptable salt thereof, were assessed to capture more challenges at clinically relevant exposures, reducing the number of IR challenges, and facilitating a drug washout phase. The washout phase lasted for at least 20 weeks. In some embodiments, the washout phase lasted for 20-25 weeks. The washout phase of these studies was important to enable the administered drug concentrations to decline sufficiently below those that were expected to be clinically suppressive in order to confirm that animals that remained aviremic in the study did so because they were protected from infection as opposed to being infected following one or more of the viral challenges but remaining suppressed by prolonged therapeutic concentrations of the long-acting drug in plasma and/or tissue compartments.
FIG. 3 is a schematic of the study using a compound of Formula (Ib) in adult rhesus macaques (1:1 male/female ratio). Eight animals per group were treated with a single dose of placebo control, 150 mg/kg of a compound of Formula (Ib) (“Compound 1b”) or 300 mg/kg of a compound of Formula (Ib) (“Compound 1b”) on week 0 and allowed to wash out over time. All animals were challenged intrarectally with SHIV weekly beginning on week 1 until detectable viremia or up to a maximum of 15 challenges. SHIV challenge titer was increased over time from 10 TCID50 to 100 TCID50 through week 15 as depicted. Animal SHIV infection rate was assessed by weekly plasma viral load monitoring by qRT-PCR through study week 20. The protective efficacy of a compound of Formula (Ib) (“Compound 1b”) was established by comparing to infection rate observed in the placebo control group using the Cox proportional hazards model analysis.
Viral infection was scored one week after each SHIV challenge using a quantitative RT-PCR assay. Infected animals were defined as having a viral load >200 copies per mL plasma and the corresponding plasma viral load values are bolded.
Viral load measurements details: RNA was extracted from plasma using a QIAcube HT and the QIAcube 96 Cador pathogen HT kit (Qiagen). Gag RNA standards were generated using the AmpliCapMax™ T7 High Yield Message Maker Kit (Cell Script) and purified with RNA clean and concentrator kit (Zymo Research). Log dilutions of RNA were included with each assay run. Reverse transcription of both standards and samples was performed using Superscript III VILO (Invitrogen). Quantitative PCR was performed using the Quantstudio 6 Flex system with TaqMan™ Fast Advanced Master Mix (Applied Biosystems). Primer sequences were F-[…] (SEQ ID NO. 1) and R-[…] (SEQ ID NO. 2). The probe sequence was […] (SEQ ID NO. 3), and probe was labeled with FAM and BHQ (Biosearch Technologies). Viral loads were calculated as gag copies per mL.

CC(C)(C#Cc1ccc(-c2ccc(Cl)c3c(NS(=O)(=O)C4CC4)nn(CC(F)F)c23)c([C@H](Cc2cc(F)cc(F)c2)NC(=O)Cn2nc(C(F)F)c3c2C(F)(F)[C@@H]2C[C@H]32)n1)S(C)(=O)=O [Compound Ib, N—((S)-1-(3-(4-chloro-3-(cyclopropanesulfonamido)-1-(2,2-difluoroethyl)-1H-indazol-7-yl)-6-(3-methyl-3-(methylsulfonyl)but-1-yn-1-yl)pyridin-2-yl)-2-(3,5-difluorophenyl)ethyl)-2-((3b S,4aR)-3-(difluoromethyl)-5,5-difluoro-3b,4,4a,5-tetrahydro-1H-cyclopropa[3,4]cyclopenta[1,2-c]pyrazol-1-yl)acetamide]
Plasma SHIV (150 mg/kg SC day 0, study week 1, intrarectal SHIV dose 10 x TCID50): <200 copies/mL | Plasma SHIV (150 mg/kg SC day 0, study week 2, intrarectal SHIV dose 10 x TCID50): <200 copies/mL | Plasma SHIV (150 mg/kg SC day 0, study week 3, intrarectal SHIV dose 10 x TCID50): <200 copies/mL | Plasma SHIV (150 mg/kg SC day 0, study week 4, intrarectal SHIV dose 10 x TCID50): <200 copies/mL | Plasma SHIV (150 mg/kg SC day 0, study week 5, intrarectal SHIV dose 10 x TCID50): <200 copies/mL | Plasma SHIV (150 mg/kg SC day 0, study week 6, intrarectal SHIV dose 10 x TCID50): <200 copies/mL | Plasma SHIV (150 mg/kg SC day 0, study week 7, intrarectal SHIV dose 10 x TCID50): <200 copies/mL | Plasma SHIV (150 mg/kg SC day 0, study week 8, intrarectal SHIV dose 10 x TCID50): <200 copies/mL | Plasma SHIV (150 mg/kg SC day 0, study week 9, intrarectal SHIV dose 33 x TCID50): <200 copies/mL | Plasma SHIV (150 mg/kg SC day 0, study week 10, intrarectal SHIV dose 33 x TCID50): <200 copies/mL | Plasma SHIV (300 mg/kg SC day 0, study week 1, intrarectal SHIV dose 10 x TCID50): <200 copies/mL | Plasma SHIV (300 mg/kg SC day 0, study week 2, intrarectal SHIV dose 10 x TCID50): <200 copies/mL | Plasma SHIV (300 mg/kg SC day 0, study week 3, intrarectal SHIV dose 10 x TCID50): <200 copies/mL | Plasma SHIV (300 mg/kg SC day 0, study week 4, intrarectal SHIV dose 10 x TCID50): <200 copies/mL | Plasma SHIV (300 mg/kg SC day 0, study week 5, intrarectal SHIV dose 10 x TCID50): <200 copies/mL | Plasma SHIV (300 mg/kg SC day 0, study week 6, intrarectal SHIV dose 10 x TCID50): <200 copies/mL | Plasma SHIV (300 mg/kg SC day 0, study week 7, intrarectal SHIV dose 10 x TCID50): <200 copies/mL | Plasma SHIV (300 mg/kg SC day 0, study week 8, intrarectal SHIV dose 10 x TCID50): <200 copies/mL | Plasma SHIV (300 mg/kg SC day 0, study week 9, intrarectal SHIV dose 33 x TCID50): <200 copies/mL | Plasma SHIV (300 mg/kg SC day 0, study week 10, intrarectal SHIV dose 33 x TCID50): <200 copies/mL | infection in relation to Compound Ib plasma exposure (150 or 300 mg/kg single SC, weekly intrarectal challenges with escalating SHIV doses, FIGS. 6B, 6C): became infected only after the viral challenges were administered at Compound Ib plasma exposures well below the clinical IQ exposure range of 4 to 9
